From patent US20050090529A1, “3,5 Disubstituted indazole compounds with nitrogen-bearing 5-membered heterocycles, pharmaceutical compositions, and methods for mediating or inhibiting cell proliferation” (PFIZER INC, priority 2003, published 2005)

Test system: Cyclin-dependent kinase
Assay: Cyclin-dependent kinase inhibition, % inhibition at 10 nM (library Examples 99-270)
Assay type: biochemical
Conditions: 10 nM compound
Summary of the method: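 Radiometric filter assay: kinase transfers ³²P/³³P from 25 μM ATP to a protein substrate in pH 7.4 HEPES buffer with MgCl2, 2% DMSO, 30° C, 20 min. EDTA stop; substrate captured on nitrocellulose or phosphocellulose membrane, washed with phosphoric acid, counted by phosphorimager.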

SMILES	% Inhib @ 10 nM
CCNCc1cncc(-c2ccc3[nH]nc(-c4ncc(C(=O)N5CCC(C)(c6cccc(OC)c6)C5)[nH]4)c3c2)c1C (centres unmarked) [Example 197, ethyl({5-[3-(5-{[3-(3-methoxyphenyl)-3-methylpyrrolidin-1-yl]carbonyl}-1H-imidazol-2-yl)-1H-indazol-5-yl]-4-methylpyridin-3-yl}methyl)amine]	67%
CCNCc1cncc(-c2ccc3[nH]nc(-c4ncc(C(=O)NCCc5ncn[nH]5)[nH]4)c3c2)c1C [Example 198, 2-(5-{5-[(ethylamino)methyl]-4-methylpyridin-3-yl}-1H-indazol-3-yl)-N-[2-(1H-1,2,4-triazol-5-yl)ethyl]-1H-imidazole-5-carboxamide]	55%
CCNCc1cncc(-c2ccc3[nH]nc(-c4ncc(C(=O)NCCN(C)CCCCCO)[nH]4)c3c2)c1C [Example 199, 2-(5-{5-[(ethylamino)methyl]-4-methylpyridin-3-yl}-1H-indazol-3-yl)-N-{2-[(5-hydroxypentyl)(methyl)amino]ethyl}-1H-imidazole-5-carboxamide]	25%
CCNCc1cncc(-c2ccc3[nH]nc(-c4ncc(C(=O)NCC(=O)OCc5ccccc5)[nH]4)c3c2)c1C [Example 200, benzyl N-{[2-(5-{5-[(ethylamino)methyl]-4-methylpyridin-3-yl}-1H-indazol-3-yl)-1H-imidazol-5-yl]carbonyl}glycinate]	63%
CCNCc1cncc(-c2ccc3[nH]nc(-c4ncc(C(=O)N5CCC(c6c[nH]c7ccccc67)CC5)[nH]4)c3c2)c1C [Example 201, ethyl({5-(3-(5-{[4-(1H-indol-3-yl)pipendin-1-yl]carbonyl}-1H-imidazol-2-yl)-1H-indazol-5-yl]-4-methylpyridin-3-yl}methyl)amine]	67%
CCNCc1cncc(-c2ccc3[nH]nc(-c4ncc(C(=O)NCc5ccc(S(C)(=O)=O)cc5)[nH]4)c3c2)c1C [Example 202, 2-(5-{5-[(ethylamino)methyl]-4-methylpyridin-3-yl}-1H-indazol-3-yl)-N-[4-(methylsulfonyl)benzyl]-1H-imidazole-5-carboxamide]	49%
CCNCc1cncc(-c2ccc3[nH]nc(-c4ncc(C(=O)N[C@@H]5CCCC[C@H]5OCc5ccccc5)[nH]4)c3c2)c1C [Example 203, N-[(1R,2R)-2-(benzyloxy)cyclohexyl]-2-(5-{5-[(ethylamino)methyl]-4-methylpyridin-3-yl)-1H-indazol-3-yl)-1H-imidazole-5-carboxamide]	31%
CCNCc1cncc(-c2ccc3[nH]nc(-c4ncc(C(=O)NC[C@]5(O)CC[C@H](c6ccccc6)CC5)[nH]4)c3c2)c1C [Example 204, 2-(5-{5-[(ethylamino)methyl]-4-methylpyridin-3-yl}-1H-indazol-3-yl)-N-[(trans-1-hydroxy-4-phenylcyclohexyl)methyl]-1H-imidazole-5-carboxamide]	77%
CCNCc1cncc(-c2ccc3[nH]nc(-c4ncc(C(=O)N5CCC6(CC5)CNC(=O)C6)[nH]4)c3c2)c1C [Example 205, 8-{[2-(5-{5-[(ethylamino)methyl]-4-methylpyridin-3-yl}-1H-indazol-3-yl)-1H-imidazol-5-yl]carbanyl}-2,8-diazaspiro[4.5]decan-3-one]	40%
CCNCc1cncc(-c2ccc3[nH]nc(-c4ncc(C(=O)N(CCC#N)Cc5cccnc5)[nH]4)c3c2)c1C [Example 206, N-(2-cyanoethyl)-2-(5-{5-N(ethylamino)methyl8-4-methylpyridin-3-yl}-1H-indazol-3-yl)-N-(pyridin-3-ylmethyl)-1H-imidazole-5-carboxamide]	71%
C=C(C)CN(CC)C(=O)c1cnc(-c2n[nH]c3ccc(-c4cncc(CNCC)c4C)cc23)[nH]1 [Example 207]	69%
CCNCc1cncc(-c2ccc3[nH]nc(-c4ncc(C(=O)NCC56C=CC(O5)[C@H]5C(=O)N(C)C(=O)[C@H]56)[nH]4)c3c2)c1C (stereo partly drawn) [Example 208, 2-(5-{5-[(ethylamino)methyl]-4-methylpyridin-3-yl}-1H-indazol-3-yl)-N-{[(3aR,7aS)-2-methyl-13-dioxo-1,2,3,3a,7,7a-hexahydro-4H-4,7-epoxyisoindol-4-yl]methyl}-1H-imidazole-5-carboxamide]	55%
CCNCc1cncc(-c2ccc3[nH]nc(-c4ncc(C(=O)N5CCN6CCCC6C5)[nH]4)c3c2)c1C (centres unmarked) [Example 209]	37%
CCNCc1cncc(-c2ccc3[nH]nc(-c4ncc(C(=O)NCC5(N(C)C)CCOCC5)[nH]4)c3c2)c1C [Example 210]	35%
CCNCc1cncc(-c2ccc3[nH]nc(-c4ncc(C(=O)NC5CCOCC5)[nH]4)c3c2)c1C [Example 211, 2-(5-{5-[(ethylamino)methyl]-4-methylpyridin-3-yl}-1H-indazol-3-yl)-N-(tetrahydro-2H-pyran-4-yl)-1H-imidazole-5-carboxamide]	57%
CCNCc1cncc(-c2ccc3[nH]nc(-c4ncc(C(=O)NCc5ccc(OC)c6ccccc56)[nH]4)c3c2)c1C [Example 212]	71%
CCNCc1cncc(-c2ccc3[nH]nc(-c4ncc(C(=O)N(CC#N)Cc5ccccc5)[nH]4)c3c2)c1C [Example 213, N-benzyl-N-(cyanomethyl)-2-(5-{5-[(ethylamino)methyl]-4-methylpyridin-3-yl}-1H-indazol-3-yl)-1H-imidazale-5-carboxamide]	68%
CCNCc1cncc(-c2ccc3[nH]nc(-c4ncc(C(=O)N5CCN(CCC#N)CC5)[nH]4)c3c2)c1C [Example 214, 3-(4-{[2-(5-{5-[(ethylamino)methyl]-4-methylpyridin-3-yl}-1H-indazol-3-yl)-1H-imidazol-5-yl]carbonyl}piperazin-1-yl)propanenitrile]	40%
CCNCc1cncc(-c2ccc3[nH]nc(-c4ncc(C(=O)NCc5cc6cc[nH]c6cn5)[nH]4)c3c2)c1C [Example 215]	72%

The remaining lines, values ahead:

% Inhib @ 10 nM	SMILES
13%	CCNCc1cncc(-c2ccc3[nH]nc(-c4ncc(C(=O)NCCC56CCCN5CCC6)[nH]4)c3c2)c1C [Example 216, 2-(5-{5-[(ethylamino)methyl]-4-methylpyridin-3-yl}-1H-indazol-3-yl)-N-[2-(tetrahydro-1H-pyrrolizin-7a(5H)-yl)ethyl]-1H-imidazole-5-carboxamide]
79%	CCNCc1cncc(-c2ccc3[nH]nc(-c4ncc(C(=O)N5CCc6ncsc6C5)[nH]4)c3c2)c1C [Example 217, [(5-{3-[5-(6,7-dihydro[1,3]thiazolo[5,4-c]pyridin-5(4H)-ylcarbonyl)-1H-imidazol-2-yl]-1H-indazol-5-yl}-4-methylpyridin-3-yl)methyl]ethylamine]
47%	CCNCc1cncc(-c2ccc3[nH]nc(-c4ncc(C(=O)N5Cc6ccccc6C(c6ccccn6)C5)[nH]4)c3c2)c1C (centres unmarked) [Example 218, ethyl{[4-methyl-5-(3-{5-[(4-pyridin-2-yl-3,4-dihydroisoquinolin-2(1H)-yl)carbonyl]-1H-imidazxol-2-yl}-1H-indazol-5-yl)pyridin-3-yl]methyl}amine]
20%	CCNCc1cncc(-c2ccc3[nH]nc(-c4ncc(C(=O)NCC56CCCN5CCC6)[nH]4)c3c2)c1C [Example 219, 2-(5-{5-[(ethylamino)methyl]-4-methylpyridin-3-yl}-1H-indazol-3-yl)-N-(tetrahydro-1H-pyrrolizin-7a(5H)-ylmethyl)-1H-imidazole-5-carboxamide]
46%	CCNCc1cncc(-c2ccc3[nH]nc(-c4ncc(C(=O)N5C[C@H](C(=O)OC)[C@@H](c6cccnc6)C5)[nH]4)c3c2)c1C [Example 220, methyl(3R,4S)-1-{[2-(5-{5-[(ethylamino)methyl]-4-methylpyridin-3-yl}-1H-indazol-3-yl)-1H-imidazol-5-yl]carbonyl}-4-pyridin-3-ylpyrrolidine-3-carboxylate]
56%	CCNCc1cncc(-c2ccc3[nH]nc(-c4ncc(C(=O)NCCc5c[nH]c6ccc(F)cc56)[nH]4)c3c2)c1C [Example 221, 2-(5-{5-[(ethylamino)methyl]-4-methylpyridin-3-yl}-1H-indazol-3-yl)-N-[2-(5-fluoro-1H-indol-3-yl)ethyl]-1H-imidazole-5-carboxamide]
30%	CCNCc1cncc(-c2ccc3[nH]nc(-c4ncc(C(=O)N5CCCN(Cc6ccc(F)cc6)CC5)[nH]4)c3c2)c1C [Example 222, ethyl({5-[3-(5-{[4-(4-fluorobenzyl)-1,4-diazxepan-1-yl]carbonyl}1H-imidazol-2-yl)-1H-indazol-5-yl]-4-methylpyridin-3-yl}methyl)amine]
71%	CCNCc1cncc(-c2ccc3[nH]nc(-c4ncc(C(=O)NCCSc5ccc(F)cc5)[nH]4)c3c2)c1C [Example 223]
72%	CCNCc1cncc(-c2ccc3[nH]nc(-c4ncc(C(=O)NCc5ccc(-c6csnn6)cc5)[nH]4)c3c2)c1C [Example 224]
70%	CCNCc1cncc(-c2ccc3[nH]nc(-c4ncc(C(=O)N(C)Cc5cnn(-c6ccccc6)c5)[nH]4)c3c2)c1C [Example 225, 2-(5-{5-[(ethylamino)methyl]-4-methylpyridin-3-yl}-1H-indazol-3-yl)-N-methyl-N-[(1-phenyl-1H-pyrazol-4-yl)methyl]-1H-imidazole-5-carboxamide]
62%	CCNCc1cncc(-c2ccc3[nH]nc(-c4ncc(C(=O)N5CCN(c6ncccc6C#N)CC5)[nH]4)c3c2)c1C [Example 226]
84%	CCNCc1cncc(-c2ccc3[nH]nc(-c4ncc(C(=O)N5Cc6ccccc6C5)[nH]4)c3c2)c1C [Example 227, [(5-{3-[5-(1,3-dihydro-2H-isoindol-2-ylcarbonyl)-1H-imidazol-2-yl]-1H-indazol-5-yl}-4-methylpyridin-3-yl)methyl]ethylamine]
50%	CCNCc1cncc(-c2ccc3[nH]nc(-c4ncc(C(=O)N5CCN(Cc6ccccn6)CC5)[nH]4)c3c2)c1C [Example 228, ethyl({4-methyl-5-[3-(5-{[4-(pyridin-2-ylmethyl)piperazin-1-yl]carbonyl)-1H-imidazol-2-yl)-1H-indazol-5-yl]pyridin-3-yl}methyl)amine]
